Source: patent EP2975030B1, “DIHYDROPYRIDAZINE-3,5-DIONE DERIVATIVE” (Chugai Seiyaku Kabushiki Kaisha, priority 2013, dated 2014)

test system: rat small-intestinal brush border membrane vesicles; assay: Inhibitory effect on 33PO4 uptake into rat small-intestinal brush border membrane vesicles (rapid filtration method); assay type: biochemical, Wistar female rat; details: 1 µM test compound; 33PO4 uptake into rat small-intestinal BBMVs, 60 seconds
Procedure, shortened: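 Uptake was terminated by ice-cold 110 mM NaCl, 1 mM KH2PO4, 10 mM HEPES (pH 7.5) buffer and immediate suction filtration, then washing. Using rat small-intestinal BBMVs, retained 33PO4 was quantified by liquid scintillation counting as transport activity.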

Row | Structure (SMILES) | Rate of uptake inhibition (%) (1 µM)
1 | CN1N(Cc2ccc(OCCN3CCOCC3)c(F)c2F)C(=O)C(C(=O)Nc2ccc(Cl)cc2-c2cc(C(F)(F)F)ncn2)=C(O)C12CCCC2 [Example 286] | 50%
2 | CN1N(Cc2ccc(OCCN3CCOCC3)c(F)c2F)C(=O)C(C(=O)Nc2ccc(C(F)(F)F)cc2-c2ccc(C(F)(F)F)nc2)=C(O)C12CCCC2 [Example 287] | 47%
3 | CN1N(Cc2ccc(OCCN3CCOCC3)c(F)c2F)C(=O)C(C(=O)Nc2ccc(Cl)cc2-c2ccc(C(F)(F)F)nc2)=C(O)C12CCCC2 [Example 288] | 61%
4 | CSc1ccc(-c2cc(C(F)(F)F)ccc2NC(=O)C2=C(O)C3(CCCC3)N(C)N(Cc3ccc(OCCN4CCOCC4)c(F)c3F)C2=O)cn1 [Example 289] | 55%
5 | Cc1c(-c2cc(C(F)(F)F)ccc2NC(=O)C2=C(O)C3(CCCC3)N(C)N(Cc3ccc(OCCN4CCOCC4)c(F)c3F)C2=O)ncnc1C(F)(F)F [Example 290] | 59%
6 | CCC1(CC)C(O)=C(C(=O)Nc2ccc(C(F)(F)F)cc2-c2cc(C(F)(F)F)ncn2)C(=O)N(Cc2ccc(OCCN3CCOCC3)c(F)c2F)N1C [Example 291] | 47%
7 | CCC1(CC)C(O)=C(C(=O)Nc2ccc(Cl)cc2-c2cc(C(F)(F)F)ncn2)C(=O)N(Cc2ccc(OCCN3CCOCC3)c(F)c2F)N1C [Example 292] | 44%
8 | CCC1(CC)C(O)=C(C(=O)Nc2ccc(C(F)(F)F)cc2-c2ccc(C(F)(F)F)nc2)C(=O)N(Cc2ccc(OCCN3CCOCC3)c(F)c2F)N1C [Example 293] | 47%
9 | CCC1(CC)C(O)=C(C(=O)Nc2ccc(Cl)cc2-c2ccc(C(F)(F)F)nc2)C(=O)N(Cc2ccc(OCCN3CCOCC3)c(F)c2F)N1C [Example 294] | 40%
10 | CN1N(Cc2ccc(OCCN3CCOCC3)c(F)c2F)C(=O)C(C(=O)Nc2ccc(C(F)(F)F)cc2-c2cc(C(F)(F)F)ncn2)=C(O)C12CCCCC2 [Example 295] | 21%
11 | Cc1c(-c2cc(C(F)(F)F)ccc2NC(=O)C2=C(O)C3(CCCCC3)N(C)N(Cc3ccc(OCCN4CCOCC4)c(F)c3F)C2=O)ncnc1C(F)(F)F [Example 296] | 17%
12 | CN1N(Cc2ccc(OCCN3CCOCC3)c(F)c2F)C(=O)C(C(=O)Nc2ccc(Cl)cc2-c2cc(C(F)(F)F)ncn2)=C(O)C12CCCCC2 [Example 297] | 36%
13 | CN1N(Cc2ccc(OCCN3CCOCC3)c(F)c2F)C(=O)C(C(=O)Nc2ccc(Br)c(C(F)(F)F)n2)=C(O)C12CCCCC2 [Example 298] | 10%
14 | CC1(C)C(O)=C(C(=O)Nc2ccc(C(F)(F)F)cc2-c2cc(C(F)(F)F)ncn2)C(=O)N(Cc2cccc(F)c2F)N1c1ccccc1 [Example 299] | 45%
15 | CN1N(Cc2cccc(F)c2F)C(=O)C(C(=O)Nc2ccc(C(F)(F)F)cc2-c2cc(C(F)(F)F)ncn2)=C(O)C12CCC2 [Example 300] | 74%
16 | CN1N(Cc2cccc(F)c2F)C(=O)C(C(=O)Nc2ccc(C(F)(F)F)cc2-c2ccc(C(F)(F)F)nc2)=C(O)C12CCC2 [Example 301] | 79%
17 | COc1cc(-c2cc(C(F)(F)F)ccc2NC(=O)C2=C(O)C(C)(C)N(C)N(Cc3cccc(F)c3F)C2=O)cnc1C#N [Example 302] | 79%
18 | CN1N(Cc2cccc(F)c2F)C(=O)C(C(=O)Nc2ccc(C(F)(F)F)cc2-c2cc(C#N)ncn2)=C(O)C1(C)C [Example 303] | 42%
19 | CN1N(Cc2cccc(F)c2F)C(=O)C(C(=O)Nc2ccc(C(F)(F)F)nc2-c2ccc(C(F)(F)F)nc2)=C(O)C1(C)C [Example 304] | 51%
20 | CN1N(Cc2cccc(F)c2F)C(=O)C(C(=O)Nc2ccc(C(F)(F)F)cc2-c2cncc(C(F)(F)F)c2)=C(O)C1(C)C [Example 305] | 66%

Row | Structure (SMILES) | Rate of uptake inhibition (%) (1 µM)
21 | CN1N(Cc2cccc(F)c2F)C(=O)C(C(=O)Nc2ccc(C(F)(F)F)nc2-c2cncc(C(F)(F)F)c2)=C(O)C1(C)C [Example 306] | 58%
22 | CN1N(Cc2cccc(F)c2F)C(=O)C(C(=O)Nc2cc(C(F)(F)F)ccc2-c2ccc(C(F)(F)F)nc2)=C(O)C1(C)C [Example 307] | 41%
23 | CN1N(Cc2cccc(F)c2F)C(=O)C(C(=O)Nc2ccc(C(F)(F)F)cc2-c2ccc(S(=O)(=O)N(C)C)cc2)=C(O)C1(C)C [Example 308] | 63%
24 | CN1N(Cc2cccc(F)c2F)C(=O)C(C(=O)Nc2ccc(Cl)cc2-c2ccc(C(F)(F)F)nc2)=C(O)C1(C)C [Example 309] | 68%
25 | CSc1ccc(-c2cc(C(F)(F)F)ccc2NC(=O)C2=C(O)C(C)(C)N(C)N(Cc3cccc(F)c3F)C2=O)cn1 [Example 310] | 63%
26 | Cc1c(C#N)ncnc1-c1cc(C(F)(F)F)ccc1NC(=O)C1=C(O)C(C)(C)N(C)N(Cc2cccc(F)c2F)C1=O [Example 311] | 65%
27 | CN1N(Cc2cccc(F)c2F)C(=O)C(C(=O)Nc2ccc(C(F)(F)F)cc2-c2ncnc(C#N)c2Cl)=C(O)C1(C)C [Example 312] | 74%
28 | CN1N(Cc2ccc(OCCN3CCOCC3)c(F)c2F)C(=O)C(C(=O)Nc2ccc(C(F)(F)F)cc2-c2cc(C(F)(F)F)ncn2)=C(O)C1(C)C [Example 313, 2-[[2,3-Difluoro-4-(2-morpholin-4-ylethoxy)phenyl]methyl]-5-hydroxy-1,6,6-trimethyl-3-oxo-N-[4-(trifluoromethyl)-2-[6-(trifluoromethyl)pyrimidin-4-yl]phenyl]pyridazine-4-carboxamide] | 65%
29 | CN1N(Cc2ccc(OCCN3CCOCC3)c(F)c2F)C(=O)C(C(=O)Nc2ccc(C(F)(F)F)cc2-c2ccc(C(F)(F)F)nc2)=C(O)C1(C)C [Example 314, 2-[[2,3-Difluoro-4-(2-morpholin-4-ylethoxy)phenyl]methyl]-5-hydroxy-1,6,6-trimethyl-3-oxo-N-[4-(trifluoromethyl)-2-[6-(trifluoromethyl)pyridin-3-yl]phenyl]pyridazine-4-carboxamide] | 72%
30 | CN1N(Cc2ccc(C#CCN3CCOCC3)c(F)c2F)C(=O)C(C(=O)Nc2ccc(C(F)(F)F)cc2-c2cc(C(F)(F)F)ncn2)=C(O)C1(C)C [Example 315, 2-[[2,3-Difluoro-4-(3-morpholin-4-ylprop-1-ynil)phenyl]methyl]-5-hydroxy-1,6,6-trimethyl-3-oxo-N-[4-(trifluoromethyl)-2-[6-(trifluoromethyl)pyrimidin-4-yl]phenyl]pyridazine-4-carboxamide] | 63%
31 | CN1N(Cc2ccc(C#CCN3CCOCC3)c(F)c2F)C(=O)C(C(=O)Nc2ccc(Cl)cc2-c2cc(C(F)(F)F)ncn2)=C(O)C1(C)C [Example 316, N-[4-Chloro-2-[6-(trifluoromethyl)pyrimidin-4-yl]phenyl]-2-[[2,3-difluoro-4-(3-morpholin-4-ylprop-1-ynil)phenyl]methyl]-5-hydroxy-1,6,6-trimethyl-3-oxopyridazine-4-carboxamide] | 64%
32 | CN1N(Cc2ccc(OCCCC(=O)O)c(F)c2F)C(=O)C(C(=O)Nc2ccc(C(F)(F)F)cc2-c2cc(C(F)(F)F)ncn2)=C(O)C12CCCC2 [Example 332, 4-[2,3-Difluoro-4-[[10-hydroxy-6-methyl-8-oxo-9-[[4-(trifluoromethyl)-2-[6-(trifluoromethyl)pyrimidin-4-yl]phenyl]carbamoyl]-6,7-diazaspiro[4.5]dec-9-en-7-yl]methyl]phenoxy]butanoate] | 3%
33 | CN1N(Cc2ccc(OCCCCCC(=O)O)c(F)c2F)C(=O)C(C(=O)Nc2ccc(C(F)(F)F)cc2-c2cc(C(F)(F)F)ncn2)=C(O)C12CCCC2 [Example 334] | 22%
34 | CN1N(Cc2ccc(OCCCCCCC(=O)O)c(F)c2F)C(=O)C(C(=O)Nc2ccc(C(F)(F)F)cc2-c2cc(C(F)(F)F)ncn2)=C(O)C12CCCC2 [Example 335] | 30%
35 | CN1N(Cc2ccc(OCC(=O)N3CCOCC3)c(F)c2F)C(=O)C(C(=O)Nc2ccc(C(F)(F)F)cc2-c2cc(C(F)(F)F)ncn2)=C(O)C12CCC2 [Example 336, 8-[[2,3-Difluoro-4-(2-morpholin-2-oxo-ethoxy)phenyl]methyl]-5-hydroxy-9-methyl-7-oxo-N-[4-(trifluoromethyl)-2-[6-(trifluoromethyl)pyrimidin-4yl]phenyl]-8,9-diazaspiro[3.5]non-5-ene-6-carboxamide] | 44%
36 | CN1N(Cc2ccc(OCCN3CCOC(=O)C3)c(F)c2F)C(=O)C(C(=O)Nc2ccc(C(F)(F)F)cc2-c2cc(C(F)(F)F)ncn2)=C(O)C12CCC2 [Example 337, 8-[[2,3-Difluoro-4-[2-(2-oxomorpholin-4-yl)ethoxy]phenyl]methyl]1-5-hydroxy-9-methyl-7-oxo-N-[4-(trifluoromethyl)-2[6-(trifluoromethyl)pyrimidin-4-yl]phenyl]-8,9-diazaspiro[3.5]non-5-ene-6-carboxamide] | 47%
37 | CN(CCOc1ccc(CN2C(=O)C(C(=O)Nc3ccc(C(F)(F)F)cc3-c3cc(C(F)(F)F)ncn3)=C(O)C3(CCC3)N2C)c(F)c1F)C1CCOC1 (stereo not drawn) [Example 338, 6-[[2,3-Difluoro-4-[2-[methyl(oxolan-3-yl)amino]ethoxy]phenyl]methyl]-9-hydroxy-5-methyl-7-oxo-N-[4-(trifluoromethyl)-2-[6-(trifluoromethyl)pyrimidin-4-yl]phenyl]-5,6-diazaspiro[3.5]non-8-ene-8-carboxamide] | 66%
38 | CN1N(Cc2ccc(OCCN3[C@@H]4COC[C@H]3C4)c(F)c2F)C(=O)C(C(=O)Nc2ccc(C(F)(F)F)cc2-c2cc(C(F)(F)F)ncn2)=C(O)C12CCC2 [Example 339] | 66%
39 | CN1N(Cc2ccc(OCCN3C4CCC3COC4)c(F)c2F)C(=O)C(C(=O)Nc2ccc(C(F)(F)F)cc2-c2cc(C(F)(F)F)ncn2)=C(O)C12CCC2 [Example 340] | 63%
